The subject of test [1] is p21 induction in HCT 116 cells. The experiment in a line: p21 induction in cells (In-Cell Western, p21/GAPDH ratio). Conditions: Homo sapiens, 24 h compound incubation, read-out: p21_EC50. It is filed as cell-based. The gist of the method:
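HCT 116 cells treated 24 h at 37° C with 11-point, 2-fold dilutions typically from 10 μM, in duplicate. Fixed cells co-stained for p21 (800 nm) and GAPDH (700 nm) by In-Cell Western. p21/GAPDH ratio normalised between DMSO and reference WRN inhibitor controls, and EC50 obtained by nonlinear regression.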

Test [2] deals with human Werner helicase (WRN, amino acids 517-1235 with L1074F point mutation) (Homo sapiens (Human), UniProt Q14191, L1074F). The experiment in a line: WRN (BV08) ADP-Glo assay. The format is biochemical. Conditions: human WRN (aa 517-1235, L1074F), read-out: ADP-Glo_hWRN_IC50. The essentials:
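Untagged WRN 517-1235 (L1074F), Sf9/baculovirus-expressed, 0.15 nM, preincubated 15 min with compound, then 5 μM ATP and 0.1 nM annealed DNA duplex added; 60 min at 25 °C in Bicine pH 7.5, 1 mM MgCl2, 1% DMSO. ADP-Glo luminescence; % inhibition vs DMSO and 20 μM NSC-617145 controls, four-parameter IC50 fit.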
On the technique in general: ADP-Glo turns the ADP formed in a reaction into a luminescent signal.

pEC50, pIC50: −log10 of the molar value.

human Werner helicase (WRN, amino acids 517-1235 with L1074F point mutation), sequence (Q14191 other isoform, or with tags, fused parts or gaps L1074F (already in the parent)): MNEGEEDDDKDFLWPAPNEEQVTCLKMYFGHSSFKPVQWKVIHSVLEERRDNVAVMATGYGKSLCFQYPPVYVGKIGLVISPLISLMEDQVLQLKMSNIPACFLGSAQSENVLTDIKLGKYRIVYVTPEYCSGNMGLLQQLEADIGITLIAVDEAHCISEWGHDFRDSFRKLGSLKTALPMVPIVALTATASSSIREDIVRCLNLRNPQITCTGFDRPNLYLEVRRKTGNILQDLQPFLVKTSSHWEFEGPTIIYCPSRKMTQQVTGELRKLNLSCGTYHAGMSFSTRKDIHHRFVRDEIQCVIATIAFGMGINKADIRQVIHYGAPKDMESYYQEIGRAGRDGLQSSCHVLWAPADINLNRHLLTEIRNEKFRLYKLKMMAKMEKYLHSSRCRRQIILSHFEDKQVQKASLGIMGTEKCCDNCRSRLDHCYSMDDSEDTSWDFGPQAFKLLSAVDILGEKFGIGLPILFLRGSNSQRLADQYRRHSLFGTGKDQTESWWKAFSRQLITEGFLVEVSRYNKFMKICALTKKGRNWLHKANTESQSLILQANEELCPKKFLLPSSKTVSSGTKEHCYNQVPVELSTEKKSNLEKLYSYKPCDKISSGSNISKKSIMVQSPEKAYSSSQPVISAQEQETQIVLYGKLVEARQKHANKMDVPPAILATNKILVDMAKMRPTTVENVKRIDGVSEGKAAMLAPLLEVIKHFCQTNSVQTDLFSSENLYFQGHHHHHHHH

For `CCc1c(N2CCN(C(=O)c3ccncc3OC)[C@H]3CC[C@@H]32)c(=O)c2nn(C3=CCOCC3)nc2n1CC(=O)NC12CC(C(C)C)(C1)C2` [Compound I-208, 2-[2-(3,6-dihydro-2H-pyran-4-yl)-5-ethyl-6-[(1S,6S)-5-(3-methoxypyridine-4-carbonyl)-2,5-diazabicyclo[4.2.0]octan-2-yl]-7-oxo-2H,4H,7H-[1,2,3]triazolo[4,5-b]pyridin-4-yl]-N-[3-(propan-2-yl)bicyclo[1.1.1]pentan-1-yl]acetamide], in test [1], the pEC50 was 5.70 to 6.30. Moreover, the pIC50 in test [2] is 7.30 to 8.30.
Take `CCc1c(N2CCN(C(=O)c3ncnc(C)c3O)[C@H]3CC[C@@H]32)c(=O)c2nn(-c3cc(C)n(C)n3)nc2n1CC(=O)NC12CC(C(C)C)(C1)C2` [Compound I-35, 2-[2-(1,5-dimethyl-1H-pyrazol-3-yl)-5-ethyl-6-[(1S,6S)-5-(5-hydroxy-6-methylpyrimidine-4-carbonyl)-2,5-diazabicyclo[4.2.0]octan-2-yl]-7-oxo-2H,4H,7H-[1,2,3]triazolo[4,5-b]pyridin-4-yl]-N-[3-(propan-2-yl)bicyclo[1.1.1]pentan-1-yl]acetamide]: the pEC50 in test [1] is at least 6.30. In test [2], the pIC50 is 7.30 to 8.30.
The corresponding values for `CCc1c(N2CCN(C(=O)c3cc(N4CCN(C)CC4)ccc3OC)[C@H]3CC[C@@H]32)c(=O)c2nn(C3=CCOCC3)nc2n1CC(=O)NC12CC(C(C)C)(C1)C2` [Compound I-165, 2-[2-(3,6-dihydro-2H-pyran-4-yl)-5-ethyl-6-[(1S,6S)-5-[2-methoxy-5-(4-methylpiperazin-1-yl)benzoyl]-2,5-diazabicyclo[4.2.0]octan-2-yl]-7-oxo-2H,4H,7H-[1,2,3]triazolo[4,5-b]pyridin-4-yl]-N-[3-(propan-2-yl)bicyclo[1.1.1]pentan-1-yl]acetamide] are 5.70 to 6.30 and 7.30 to 8.30.
On to `CCc1c(N2CCN(C(=O)c3ncnc(C)c3O)C3CCC[C@H]32)c(=O)c2nn(-c3ccnc(OC)c3)nc2n1CC(=O)NC12CC(C(C)C)(C1)C2` (stereo in doubt) [Compound I-76, rel-2-{6-[(4aR,7aS)-4-(5-hydroxy-6-methylpyrimidine-4-carbonyl)-octahydro-1H-cyclopenta[b]pyrazin-1-yl]-5-ethyl-2-(2-methoxypyridin-4-yl)-7-oxo-2H,4H,7H-[1,2,3]triazolo[4,5-b]pyridin-4-yl}-N-[3-(propan-2-yl)bicyclo[1.1.1]pentan-1-yl]acetamide], for which the pEC50 in test [1] was 5.70 to 6.30. The pIC50 in test [2] is 7.30 to 8.30.
Taken in the same sequence, the figures for `CCc1c(N2CCN(C(=O)c3c(OC)ncc(C)c3O)[C@H]3CC[C@@H]32)c(=O)c2nn(-c3ccnc(C)c3)nc2n1CC(=O)Nc1ccc(C(F)(F)F)cc1F` [Compound I-95, 2-{5-ethyl-6-[(1S,6S)-5-(4-hydroxy-2-methoxy-5-methylpyridine-3-carbonyl)-2,5-diazabicyclo[4.2.0]octan-2-yl]-2-(2-methylpyridin-4-yl)-7-oxo-2H,4H,7H-[1,2,3]triazolo[4,5-b]pyridin-4-yl}-N-[2-fluoro-4-(trifluoromethyl)phenyl]acetamide] were at least 6.30 and at least 8.30.
Taken in the same sequence, the figures for `CCc1c(N2CCN(C(=O)c3ccc4cccnc4c3O)[C@H]3CC[C@@H]32)c(=O)c2nn(C3=CCOCC3)nc2n1CC(=O)NC12CC(C(C)C)(C1)C2` [Compound I-159, 2-[2-(3,6-dihydro-2H-pyran-4-yl)-5-ethyl-6-[(1S,6S)-5-(8-hydroxyquinoline-7-carbonyl)-2,5-diazabicyclo[4.2.0]octan-2-yl]-7-oxo-2H,4H,7H-[1,2,3]triazolo[4,5-b]pyridin-4-yl]-N-[3-(propan-2-yl)bicyclo[1.1.1]pentan-1-yl]acetamide] were 5.70 to 6.30 and 7.30 to 8.30.
Taken in the same sequence, the figures for `CCc1c(N2CCN(C(=O)c3[nH]cnc3C#N)[C@H]3CC[C@@H]32)c(=O)c2nn(C3=CCOCC3)nc2n1CC(=O)NC12CC(C(C)C)(C1)C2` [Compound I-170, 2-{6-[(1S,6S)-5-(4-cyano-1H-imidazole-5-carbonyl)-2,5-diazabicyclo[4.2.0]octan-2-yl]-2-(3,6-dihydro-2H-pyran-4-yl)-5-ethyl-7-oxo-2H,4H,7H-[1,2,3]triazolo[4,5-b]pyridin-4-yl}-N-[3-(propan-2-yl)bicyclo[1.1.1]pentan-1-yl]acetamide] were under 5.30 and 7.30 to 8.30.
As for `CCc1c(N2CCN(C(=O)c3cccc(N4CCN(C)CC4)c3OC)[C@H]3CC[C@@H]32)c(=O)c2nn(C3=CCOCC3)nc2n1CC(=O)NC12CC(C(C)C)(C1)C2` [Compound I-169, 2-[2-(3,6-dihydro-2H-pyran-4-yl)-5-ethyl-6-[(1S,6S)-5-[2-methoxy-3-(4-methylpiperazin-1-yl)benzoyl]-2,5-diazabicyclo[4.2.0]octan-2-yl]-7-oxo-2H,4H,7H-[1,2,3]triazolo[4,5-b]pyridin-4-yl]-N-[3-(propan-2-yl)bicyclo[1.1.1]pentan-1-yl]acetamide], the pEC50 in test [1] was 5.30 to 5.70. Also, the pIC50 in test [2] is 7.30 to 8.30.
Taken in the same sequence, the figures for `CCc1c(C2=CCN(C(=O)c3ncnc(C)c3O)CC2(C)C)c(=O)n2nc(C3=CCOCC3)nc2n1CC(=O)Nc1ccc(C(F)(F)F)cc1Cl` [Compound I-174, N-[2-chloro-4-(trifluoromethyl)phenyl]-2-[2-(3,6-dihydro-2H-pyran-4-yl)-5-ethyl-6-[1-(5-hydroxy-6-methylpyrimidine-4-carbonyl)-3,3-dimethyl-1,2,3,6-tetrahydropyridin-4-yl]-7-oxo-4H,7H-[1,2,4]triazolo[1,5-a]pyrimidin-4-yl]acetamide] were at least 6.30 and 7.30 to 8.30.
As for `CCc1c(N2CCN(C(=O)c3cccc4ncoc34)[C@H]3CC[C@@H]32)c(=O)c2nn(-c3ccnc(OC)c3)nc2n1CC(=O)NC12CC(C(C)C)(C1)C2` [Compound I-108, 2-{6-[(1S,6S)-5-(1,3-benzoxazole-7-carbonyl)-2,5-diazabicyclo[4.2.0]octan-2-yl]-5-ethyl-2-(2-methoxypyridin-4-yl)-7-oxo-2H,4H,7H-[1,2,3]triazolo[4,5-b]pyridin-4-yl}-N-[3-(propan-2-yl)bicyclo[1.1.1]pentan-1-yl]acetamide], the pEC50 in test [1] is 5.70 to 6.30. The pIC50 in test [2] was 7.30 to 8.30.
Taken in the same sequence, the figures for `CCc1c(N2CCN(C(=O)c3cnn(C)c3OC)[C@H]3CC[C@@H]32)c(=O)c2nn(C3=CCOCC3)nc2n1CC(=O)NC12CC(C(C)C)(C1)C2` [Compound I-210, 2-[2-(3,6-dihydro-2H-pyran-4-yl)-5-ethyl-6-[(1S,6S)-5-(5-methoxy-1-methyl-1H-pyrazole-4-carbonyl)-2,5-diazabicyclo[4.2.0]octan-2-yl]-7-oxo-2H,4H,7H-[1,2,3]triazolo[4,5-b]pyridin-4-yl]-N-[3-(propan-2-yl)bicyclo[1.1.1]pentan-1-yl]acetamide] were 5.70 to 6.30 and 7.30 to 8.30.
The corresponding values for `CCc1c(N2CCN(C(=O)c3c(O)ccc4ncoc34)CC2)c(=O)c2nn(C(C)C)nc2n1CC(=O)Nc1ccc(C(F)(F)F)cc1Cl` [Compound I-139, N-[2-chloro-4-(trifluoromethyl)phenyl]-2-{5-ethyl-6-[4-(6-hydroxy-1,3-benzoxazole-7-carbonyl)piperazin-1-yl]-7-oxo-2-(propan-2-yl)-2H,4H,7H-[1,2,3]triazolo[4,5-b]pyridin-4-yl}acetamide] are at least 6.30 and at least 8.30.
In the case of `CCc1c(N2CCN(C(=O)c3nocc3O)[C@H]3CC[C@@H]32)c(=O)c2nn(C3=CCOCC3)nc2n1CC(=O)NC12CC(C(C)C)(C1)C2` [Compound I-171, 2-[2-(3,6-dihydro-2H-pyran-4-yl)-5-ethyl-6-[(1S,6S)-5-(4-hydroxy-1,2-oxazole-3-carbonyl)-2,5-diazabicyclo[4.2.0]octan-2-yl]-7-oxo-2H,4H,7H-[1,2,3]triazolo[4,5-b]pyridin-4-yl]-N-[3-(propan-2-yl)bicyclo[1.1.1]pentan-1-yl]acetamide], in test [1], the pEC50 is at least 6.30. The pIC50 in test [2] was at least 8.30.
On to `CCc1c(N2CCN(C(=O)c3c(OC)ncc(C)c3O)CC2)c(=O)c2nn(-c3ccnc(OC)c3)nc2n1CC(=O)NC12CC(C3CCOC3)(C1)C2` (stereo not drawn) [Compound I-123, 2-{5-ethyl-6-[4-(4-hydroxy-2-methoxy-5-methylpyridine-3-carbonyl)piperazin-1-yl]-2-(2-methoxypyridin-4-yl)-7-oxo-2H,4H,7H-[1,2,3]triazolo[4,5-b]pyridin-4-yl}-N-[3-(oxolan-3-yl)bicyclo[1.1.1]pentan-1-yl]acetamide], for which, in test [1], the pEC50 is under 5.30. Further, the pIC50 in test [2] was 7.00 to 7.30.
On to `CCc1c(N2CCN(C(=O)c3ncccc3OC)[C@H]3CC[C@@H]32)c(=O)c2nn(C3=CCOCC3)nc2n1CC(=O)NC12CC(C(C)C)(C1)C2` [Compound I-204, 2-[2-(3,6-dihydro-2H-pyran-4-yl)-5-ethyl-6-[(1S,6S)-5-(3-methoxypyridine-2-carbonyl)-2,5-diazabicyclo[4.2.0]octan-2-yl]-7-oxo-2H,4H,7H-[1,2,3]triazolo[4,5-b]pyridin-4-yl]-N-[3-(propan-2-yl)bicyclo[1.1.1]pentan-1-yl]acetamide], for which the pEC50 in test [1] was 5.70 to 6.30. Also, in test [2], the pIC50 was 7.30 to 8.30.
